Assay results from patent US10023570B2 (Array BioPharma, Inc., priority 2015, dated 2018).
pIC50: −log10 of the molar value.

Target: human KDR protein in HEK-293 cells (Homo sapiens (Human), UniProt P35968)
Assay: KDR Cell Assay (phospho-KDR in HEK-293 cells expressing inducible KDR)
Type: cell-based
Conditions: pKDR Cell HEK 10% FBS IC50, HEK-293 cells expressing inducible KDR, VEGF stimulated, 10% FBS
Experimental: The cellular potency of a compound inhibiting KDR kinase was determined in HEK-293 cells expressing an inducible human KDR protein. […] The cells were incubated for 1 hour with test compound in DMEM at a final DMSO concentration of 0.25%. […] The media was aspirated and 35 μL of a 1× lysis buffer was added. […] The lysate was stored at −80° C. until ready for assay. Phospho-KDR was measured using a phospho-KDR kit (Catalog #K151BOC) purchased from Meso Scale Diagnostics (Rockville, Md.) according to the manufacturer's instructions. All values are expressed as percent of percent of control (POC). The POC values were fitted to a 4 parameter logistic curve fit and the IC50 value is point where the curve crosses 50 POC.

human KDR protein in HEK-293 cells, sequence (P35968 20-1356): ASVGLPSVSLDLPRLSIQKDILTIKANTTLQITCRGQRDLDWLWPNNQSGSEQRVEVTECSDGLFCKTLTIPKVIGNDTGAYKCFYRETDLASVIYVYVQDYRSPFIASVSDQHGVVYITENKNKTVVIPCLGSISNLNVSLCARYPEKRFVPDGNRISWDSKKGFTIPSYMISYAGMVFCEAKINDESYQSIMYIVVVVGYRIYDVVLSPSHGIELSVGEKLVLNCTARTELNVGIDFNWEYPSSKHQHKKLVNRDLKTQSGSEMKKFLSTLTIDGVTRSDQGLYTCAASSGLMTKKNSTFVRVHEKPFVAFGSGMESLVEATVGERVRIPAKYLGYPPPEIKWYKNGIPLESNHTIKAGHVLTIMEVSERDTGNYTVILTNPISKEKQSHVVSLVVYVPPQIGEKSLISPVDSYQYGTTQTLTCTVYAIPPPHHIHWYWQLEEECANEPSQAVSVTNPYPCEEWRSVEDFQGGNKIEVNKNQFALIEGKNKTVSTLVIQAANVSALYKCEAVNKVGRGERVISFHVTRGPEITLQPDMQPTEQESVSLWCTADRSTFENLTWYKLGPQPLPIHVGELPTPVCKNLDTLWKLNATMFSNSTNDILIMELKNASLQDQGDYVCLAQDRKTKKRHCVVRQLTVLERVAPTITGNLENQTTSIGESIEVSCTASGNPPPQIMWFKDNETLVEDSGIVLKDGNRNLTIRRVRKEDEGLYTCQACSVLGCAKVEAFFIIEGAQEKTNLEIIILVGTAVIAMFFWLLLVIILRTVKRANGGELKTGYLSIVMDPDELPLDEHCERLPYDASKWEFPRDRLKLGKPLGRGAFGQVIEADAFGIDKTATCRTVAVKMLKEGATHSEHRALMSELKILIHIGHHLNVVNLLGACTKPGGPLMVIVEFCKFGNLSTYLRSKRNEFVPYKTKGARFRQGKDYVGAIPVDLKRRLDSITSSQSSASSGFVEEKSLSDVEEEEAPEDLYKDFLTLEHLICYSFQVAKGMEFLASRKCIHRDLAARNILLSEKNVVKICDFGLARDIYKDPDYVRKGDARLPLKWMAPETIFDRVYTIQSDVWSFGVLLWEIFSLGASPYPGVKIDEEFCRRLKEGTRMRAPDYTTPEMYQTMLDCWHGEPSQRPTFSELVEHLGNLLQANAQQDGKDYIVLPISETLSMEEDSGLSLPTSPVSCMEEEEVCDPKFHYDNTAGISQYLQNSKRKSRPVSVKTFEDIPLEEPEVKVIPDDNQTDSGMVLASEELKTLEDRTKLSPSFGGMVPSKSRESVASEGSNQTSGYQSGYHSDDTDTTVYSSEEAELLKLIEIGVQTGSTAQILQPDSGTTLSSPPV

pIC50 | Compound
5.71 | COC[C@@H]1CCCN1C(=O)N1CCN(c2ccc(-c3cc(-c4cnn(C)c4)cn4ncc(C#N)c34)cn2)CC1 [Example 111, (S)-4-(6-(4-(2-(methoxymethyl)pyrrolidine-1-carbonyl)piperazin-1-yl)pyridin-3-yl)-6-(1-methyl-1H-pyrazol-4-yl)pyrazolo[1,5-a]pyridine-3-carbonitrile]
6.06 | Cn1cc(-c2cc(-c3ccc(N4CCN(C(=O)N5CCC[C@H]5C#N)CC4)nc3)c3c(C#N)cnn3c2)cn1 [Example 112, (S)-4-(6-(4-(2-cyanopyrrolidine-1-carbonyl)piperazin-1-yl)pyridin-3-yl)-6-(1-methyl-1H-pyrazol-4-yl)pyrazolo[1,5-a]pyridine-3-carbonitrile]
6.18 | Cn1cc(-c2cc(-c3ccc(N4CCN(C(=O)N5CCC[C@H]5C(F)(F)F)CC4)nc3)c3c(C#N)cnn3c2)cn1 [Example 113, (S)-6-(1-methyl-1H-pyrazol-4-yl)-4-(6-(4-(2-(trifluoromethyl)pyrrolidine-1-carbonyl)piperazin-1-yl)pyridin-3-yl)pyrazolo[1,5-a]pyridine-3-carbonitrile]
5.65 | Cn1cc(-c2cc(-c3ccc(N4CCN(C(=O)N5CCC(F)CC5)CC4)nc3)c3c(C#N)cnn3c2)cn1 [Example 114, 4-(6-(4-(4-fluoropiperidine-1-carbonyl)piperazin-1-yl)pyridin-3-yl)-6-(1-methyl-1H-pyrazol-4-yl)pyrazolo[1,5-a]pyridine-3-carbonitrile]
5.50 | Cn1cc(-c2cc(-c3ccc(N4CCN(C(=O)N5CCC(F)(F)CC5)CC4)nc3)c3c(C#N)cnn3c2)cn1 [Example 115, 4-(6-(4-(4,4-difluoropiperidine-1-carbonyl)piperazin-1-yl)pyridin-3-yl)-6-(1-methyl-1H-pyrazol-4-yl)pyrazolo[1,5-a]pyridine-3-carbonitrile]
5.64 | Cn1cc(-c2cc(-c3ccc(N4CCN(C(=O)N5CCCC(F)C5)CC4)nc3)c3c(C#N)cnn3c2)cn1 (centres unmarked) [Example 116, 4-(6-(4-(3-fluoropiperidine-1-carbonyl)piperazin-1-yl)pyridin-3-yl)-6-(1-methyl-1H-pyrazol-4-yl)pyrazolo[1,5-a]pyridine-3-carbonitrile]
6.45 | Cn1cc(-c2cc(-c3ccc(N4CCN(C(=O)N5CCC6(CC6)C5)CC4)nc3)c3c(C#N)cnn3c2)cn1 [Example 117, 4-(6-(4-(5-azaspiro[2.4]heptane-5-carbonyl)piperazin-1-yl)pyridin-3-yl)-6-(1-methyl-1H-pyrazol-4-yl)pyrazolo[1,5-a]pyridine-3-carbonitrile]
6.22 | Cn1cc(-c2cc(-c3ccc(N4CCN(C(=O)N5CCC(C)(C)C5)CC4)nc3)c3c(C#N)cnn3c2)cn1 [Example 118, 4-(6-(4-(3,3-dimethylpyrrolidine-1-carbonyl)piperazin-1-yl)pyridin-3-yl)-6-(1-methyl-1H-pyrazol-4-yl)pyrazolo[1,5-a]pyridine-3-carbonitrile]
5.64 | Cn1cc(-c2cc(-c3ccc(N4CCN(C(=O)N5CCOCC5)CC4)nc3)c3c(C#N)cnn3c2)cn1 [Example 119, 6-(1-methyl-1H-pyrazol-4-yl)-4-(6-(4-(morpholine-4-carbonyl)piperazin-1-yl)pyridin-3-yl)pyrazolo[1,5-a]pyridine-3-carbonitrile]
5.65 | CN1CCN(C(=O)N2CCN(c3ccc(-c4cc(-c5cnn(C)c5)cn5ncc(C#N)c45)cn3)CC2)CC1 [Example 120, 6-(1-methyl-1H-pyrazol-4-yl)-4-(6-(4-(4-methylpiperazine-1-carbonyl)piperazin-1-yl)pyridin-3-yl)pyrazolo[1,5-a]pyridine-3-carbonitrile]
5.87 | Cn1cc(-c2cc(-c3ccc(N4CCN(C(=O)NC5CCOCC5)CC4)nc3)c3c(C#N)cnn3c2)cn1 [Example 121, 4-(5-(3-cyano-6-(1-methyl-1H-pyrazol-4-yl)pyrazolo[1,5-a]pyridin-4-yl)pyridin-2-yl)-N-(tetrahydro-2H-pyran-4-yl)piperazine-1-carboxamide]
5.79 | Cn1cc(-c2cc(-c3ccc(N4CCN(C(=O)N5CC6COCC6C5)CC4)nc3)c3c(C#N)cnn3c2)cn1 (centres unmarked) [Example 123, 4-(6-(4-(hexahydro-1H-furo[3,4-c]pyrrole-5-carbonyl)piperazin-1-yl)pyridin-3-yl)-6-(1-methyl-1H-pyrazol-4-yl)pyrazolo[1,5-a]pyridine-3-carbonitrile]
5.73 | Cn1cc(-c2cc(-c3ccc(N4CCN(C(=O)N5CCCC5(C)C)CC4)nc3)c3c(C#N)cnn3c2)cn1 [Example 124, 4-(6-(4-(2,2-dimethylpyrrolidine-1-carbonyl)piperazin-1-yl)pyridin-3-yl)-6-(1-methyl-1H-pyrazol-4-yl)pyrazolo[1,5-a]pyridine-3-carbonitrile]

The remaining lines, values behind:

Compound | pIC50
Cn1cc(-c2cc(-c3ccc(N4CCN(C(=O)N5CCCC(F)(F)C5)CC4)nc3)c3c(C#N)cnn3c2)cn1 [Example 94, 4-(6-(4-(3,3-difluoropiperidine-1-carbonyl)piperazin-1-yl)pyridin-3-yl)-6-(1-methyl-1H-pyrazol-4-yl)pyrazolo[1,5-a]pyridine-3-carbonitrile] | 5.77
Cn1cc(-c2cc(-c3ccc(N4CCN(C(=O)N5C6CCC5CC6)CC4)nc3)c3c(C#N)cnn3c2)cn1 [Example 95, 4-(6-(4-(7-azabicyclo[2.2.1]heptane-7-carbonyl)piperazin-1-yl)pyridin-3-yl)-6-(1-methyl-1H-pyrazol-4-yl)pyrazolo[1,5-a]pyridine-3-carbonitrile] | 5.88
CO[C@H]1CCN(C(=O)N2CCN(c3ccc(-c4cc(-c5cnn(C)c5)cn5ncc(C#N)c45)cn3)CC2)C1 [Example 97, (S)-4-(6-(4-(3-methoxypyrrolidine-1-carbonyl)piperazin-1-yl)pyridin-3-yl)-6-(1-methyl-1H-pyrazol-4-yl)pyrazolo[1,5-a]pyridine-3-carbonitrile] | 6.12
Cn1cc(-c2cc(-c3ccc(N4CCN(C(=O)N5CCC(F)(F)C5)CC4)nc3)c3c(C#N)cnn3c2)cn1 [Example 101, 4-(6-(4-(3,3-difluoropyrrolidine-1-carbonyl)piperazin-1-yl)pyridin-3-yl)-6-(1-methyl-1H-pyrazol-4-yl)pyrazolo[1,5-a]pyridine-3-carbonitrile] | 6.06
Cn1cc(-c2cc(-c3ccc(N4CCN(C(=O)N5CC[C@H](F)C5)CC4)nc3)c3c(C#N)cnn3c2)cn1 [Example 102, (S)-4-(6-(4-(3-fluoropyrrolidine-1-carbonyl)piperazin-1-yl)pyridin-3-yl)-6-(1-methyl-1H-pyrazol-4-yl)pyrazolo[1,5-a]pyridine-3-carbonitrile] | 6.26
Cn1cc(-c2cc(-c3ccc(N4CCN(C(=O)N5CC[C@@H](F)C5)CC4)nc3)c3c(C#N)cnn3c2)cn1 [Example 103, (R)-4-(6-(4-(3-fluoropyrrolidine-1-carbonyl)piperazin-1-yl)pyridin-3-yl)-6-(1-methyl-1H-pyrazol-4-yl)pyrazolo[1,5-a]pyridine-3-carbonitrile] | 6.07
CO[C@@H]1CCN(C(=O)N2CCN(c3ccc(-c4cc(-c5cnn(C)c5)cn5ncc(C#N)c45)cn3)CC2)C1 [Example 104, (R)-4-(6-(4-(3-methoxypyrrolidine-1-carbonyl)piperazin-1-yl)pyridin-3-yl)-6-(1-methyl-a]pyridine-3-carbonitrile 1H-pyrazol-4-yl)pyrazolo[1,5-] | 6.20
Cn1cc(-c2cc(-c3ccc(N4CCN(C(=O)N[C@H]5CCOC5)CC4)nc3)c3c(C#N)cnn3c2)cn1 [Example 105, (S)-4-(5-(3-cyano-6-(1-methyl-1H-pyrazol-4-yl)pyrazolo[1,5-a]pyridin-4-yl)pyridin-2-yl)-N-(tetrahydrofuran-3-yl)piperazine-1-carboxamide] | 5.94
Cn1cc(-c2cc(-c3ccc(N4CCN(C(=O)N[C@@H]5CCOC5)CC4)nc3)c3c(C#N)cnn3c2)cn1 [Example 106, (R)-4-(5-(3-cyano-6-(1-methyl-1H-pyrazol-4-yl)pyrazolo[1,5-a]pyridin-4-yl)pyridin-2-yl)-N-(tetrahydrofuran-3-yl)piperazine-1-carboxamide] | 5.86
CC(C)O[C@@H]1CCN(C(=O)N2CCN(c3ccc(-c4cc(-c5cnn(C)c5)cn5ncc(C#N)c45)cn3)CC2)C1 [Example 107, (R)-4-(6-(4-(3-isopropoxypyrrolidine-1-carbonyl)piperazin-1-yl)pyridin-3-yl)-6-(1-methyl-1H-pyrazol-4-yl)pyrazolo[1,5-a]pyridine-3-carbonitrile] | 6.05
CC(C)O[C@H]1CCN(C(=O)N2CCN(c3ccc(-c4cc(-c5cnn(C)c5)cn5ncc(C#N)c45)cn3)CC2)C1 [Example 108, (S)-4-(6-(4-(3-isopropoxypyrrolidine-1-carbonyl)piperazin-1-yl)pyridin-3-yl)-6-(1-methyl-1H-pyrazol-4-yl)pyrazolo[1,5-a]pyridine-3-carbonitrile] | 6.27
CN(C(=O)N1CCN(c2ccc(-c3cc(-c4cnn(C)c4)cn4ncc(C#N)c34)cn2)CC1)c1ccccc1 [Example 109, 4-(5-(3-cyano-6-(1-methyl-1H-pyrazol-4-yl)pyrazolo[1,5-a]pyridin-4-yl)pyridin-2-yl)-N-methyl-N-phenylpiperazine-1-carboxamide] | 6.44
COC[C@H]1CCCN1C(=O)N1CCN(c2ccc(-c3cc(-c4cnn(C)c4)cn4ncc(C#N)c34)cn2)CC1 [Example 110, (R)-4-(6-(4-(2-(methoxymethyl)pyrrolidine-1-carbonyl)piperazin-1-yl)pyridin-3-yl)-6-(1-methyl-1H-pyrazol-4-yl)pyrazolo[1,5-a]pyridine-3-carbonitrile] | 5.88
